Values after ≈ are worked out from the molar mass of the structure shown.
Key:
Streptococcus pneumoniae [1] = experiment: Susceptibility of Streptococcus pneumoniae ATCC 49619 by microdilution method; type: functional
[2] = Peak free concentration at 200 mg/24 hrs regimen in vitro PK model; type: ADME
[3] = Peak free concentration at 400 mg/24 hrs regimen in vitro PK model; type: ADME
[4] = Peak free concentration at 50 mg/24 hrs regimen in vitro PK model; type: ADME
[5] = Peak free concentration at 75 mg/24 hrs regimen in vitro PK model; type: ADME
[6] = Peak free concentration at 100 mg/24 hrs regimen in vitro PK model; type: ADME
Streptococcus pneumoniae [7] = experiment: Susceptibility of Streptococcus pneumoniae BSP-2443 by microdilution method; type: functional; conditions: BSP2443
Staphylococcus aureus [8] = experiment: Bactericidal activity against Staphylococcus aureus ATCC 49619 at fAUC/MIC of […] after 72 hrs in pharmacodynamic model; type: functional; conditions: ATCC 49619, 72 h
Staphylococcus aureus [9] = experiment: Bactericidal activity against Staphylococcus aureus ATCC 49619 at fAUC/MIC of […] after 96 hrs in pharmacodynamic model; type: functional; conditions: ATCC 49619, 96 h
Streptococcus pneumoniae [10] = experiment: microbe, parasite or virus in culture; conditions: Staphylococcus aureus, ATCC 49619
Streptococcus pneumoniae [11] = experiment: microbe, parasite or virus in culture; conditions: Staphylococcus aureus, ATCC 49619; remark: listed apart in the source
Streptococcus pneumoniae [12] = experiment: microbe, parasite or virus in culture; conditions: Staphylococcus aureus, ATCC 49619; remark: listed apart in the source
Streptococcus pneumoniae [13] = experiment: microbe, parasite or virus in culture; conditions: Staphylococcus aureus, ATCC 49619; remark: listed apart in the source
Streptococcus pneumoniae [14] = experiment: microbe, parasite or virus in culture; conditions: Staphylococcus aureus, ATCC 49619; remark: listed apart in the source
Streptococcus pneumoniae [15] = experiment: microbe, parasite or virus in culture; conditions: Staphylococcus aureus, BSP2443
Streptococcus pneumoniae [16] = experiment: microbe, parasite or virus in culture; conditions: Staphylococcus aureus, BSP2443; remark: listed apart in the source
Streptococcus pneumoniae [17] = experiment: microbe, parasite or virus in culture; conditions: Staphylococcus aureus, BSP2443; remark: listed apart in the source
Streptococcus pneumoniae [18] = experiment: microbe, parasite or virus in culture; conditions: Staphylococcus aureus, BSP2443, 72 h
Streptococcus pneumoniae [19] = experiment: microbe, parasite or virus in culture; conditions: Staphylococcus aureus, BSP2443, 96 h
Streptococcus pneumoniae [20] = experiment: Bactericidal activity against Streptococcus pneumoniae BSP-2443 with parC S52G, N91D mutation and gyrA S114G mutation at fAUC/MIC of 24 after 96 hrs in pharmacodynamic model; conditions: BSP2443, 96 h
Streptococcus pneumoniae [21] = experiment: Bactericidal activity against Streptococcus pneumoniae BSP-2443 with parC S52G, N91D mutation and gyrA S114G mutation at fAUC/MIC of 24 after 72 hrs in pharmacodynamic model; conditions: BSP2443, 72 h

What does the source list for COc1c(N2C[C@@H]3CCCN[C@@H]3C2)c(F)cc2c(=O)c(C(=O)O)cn(C3CC3)c12 [MOXIFLOXACIN]?
MIC (Streptococcus pneumoniae [1]): 0.025 µg/mL (≈ 0.0623 µM); Activity [2]: 1.1 µg/mL; Activity [3]: 2.48 µg/mL; Activity [4]: 0.3 µg/mL; Activity [5]: 0.45 µg/mL; Activity [6]: 0.6 µg/mL; MIC (Streptococcus pneumoniae [7]): 0.025 µg/mL (≈ 0.0623 µM); MIC (Staphylococcus aureus [8]): 0.19 µg/mL (≈ 0.473 µM); MIC (Staphylococcus aureus [9]): 0.75 µg/mL (≈ 1.87 µM); MIC (Streptococcus pneumoniae [10]): 0.125 µg/mL (≈ 0.311 µM); MIC (Streptococcus pneumoniae [11]): 0.125 µg/mL (≈ 0.311 µM); MIC (Streptococcus pneumoniae [12]): 0.125 µg/mL (≈ 0.311 µM); MIC (Streptococcus pneumoniae [13]): 0.125 µg/mL (≈ 0.311 µM); MIC (Streptococcus pneumoniae [14]): 0.125 µg/mL (≈ 0.311 µM); MIC (Streptococcus pneumoniae [15]): 0.25 µg/mL (≈ 0.623 µM); MIC (Streptococcus pneumoniae [16]): 0.25 µg/mL (≈ 0.623 µM); MIC (Streptococcus pneumoniae [17]): 0.25 µg/mL (≈ 0.623 µM); MIC (Streptococcus pneumoniae [18]): 4 µg/mL (≈ 9.96 µM); MIC (Streptococcus pneumoniae [19]): 4 µg/mL (≈ 9.96 µM); MIC (Streptococcus pneumoniae [20]): 1.5 µg/mL; MIC (Streptococcus pneumoniae [21]): 0.38 µg/mL

— ChEMBL document CHEMBL1147116 (Antimicrob Agents Chemother, 2007)
